Data published in PubChem BioAssay AID2051 (NMMLSC, 2009).
pEC50, pKi: −log10 of the molar value. Activity calls are given as the source filed them.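 How the source made its calls: active means EC50 of 30 microM or lower and a span of response of at least a set limit; inactive means the rest.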

Target: Ras-related C3 botulinum toxin substrate 1 (Homo sapiens) (UniProt P63000)
Test: activated mutant Rac1 GTP binding inhibitors, SAR follow-up, biochemical, oxadiazole analogs, multiplex bead flow cytometry (AID 2051)
Conditions: Bead-based flow cytometry, Bodipy-FL-GTP binding to GST-Rac1; for pKi: measured here: Ki calculated from EC50

Structure (SMILES): COc1ccc(-c2noc(CCCC(=O)N3CCN(c4cc(C)ccc4C)CC3)n2)cc1
- pEC50: 5.09
- pKi: 6.12

Structure (SMILES): COc1ccc(-c2noc(CCC(=O)N3CCN(c4ccccc4Cl)CC3)n2)cc1
- pEC50: 5.31
- pKi: 6.35

Structure (SMILES): Cc1cccc(-c2noc(CCC(=O)N3CCN(c4cc(C)ccc4C)CC3)n2)c1
- pEC50: 5.72
- pKi: 6.77

Structure (SMILES): COc1ccc(-c2noc(CCC(=O)N3CCC(c4cc(C)ccc4C)CC3)n2)cc1
- EC50: inactive
- pKi: 6.64

Structure (SMILES): COc1ccc(-c2noc(CCC(=O)N3CCN(c4ccccc4OC)CC3)n2)cc1
- pEC50: 5.42
- pKi: 6.46

Structure (SMILES): Cc1ccc(-c2noc(CCC(=O)N3CCN(c4cc(C)ccc4C)CC3)n2)cc1
- pEC50: 5.48
- pKi: 6.52

Structure (SMILES): Cc1ccc(C)c(N2CCN(C(=O)CCc3nc(-c4ccc(F)cc4)no3)CC2)c1
- pEC50: 5.86
- pKi: 6.92

Structure (SMILES): Cc1ccc(C)c(N2CCN(C(=O)CCc3nc(-c4ccc(N(C)C)cc4)no3)CC2)c1
- pEC50: 5.39
- pKi: 6.43

Structure (SMILES): COc1ccc(-c2noc(CCC(=O)N3CCN(c4cccc(OC)c4)CC3)n2)cc1
- EC50: inactive
- pKi: 6.05

Structure (SMILES): COc1ccc(-c2noc(CCC(=O)N3CCN(c4ccc(OC)cc4)CC3)n2)cc1
- EC50: inactive
- pKi: 7.22

Structure (SMILES): COc1ccc(-c2noc(CCC(=O)N3CCN(c4cc(C)ccc4C)CC3)n2)cc1
- pEC50: 5.23
- pKi: 6.27

Structure (SMILES): Cc1ccc(C)c(N2CCN(C(=O)CCc3nc(-c4cccc(Br)c4)no3)CC2)c1
- pEC50: 5.67
- pKi: 6.72

Structure (SMILES): COc1ccc(-c2noc(CCC(=O)N3CCN(c4ccccc4F)CC3)n2)cc1
- pEC50: 5.60
- pKi: 6.64

Structure (SMILES): COc1ccc(-c2noc(CCC(=O)N3CCN(c4cccc(C)c4C)CC3)n2)cc1
- pEC50: 5.81
- pKi: 6.85

Structure (SMILES): COc1ccc(-c2noc(CCC(=O)N3CCN(c4ccc(C(F)(F)F)cc4)CC3)n2)cc1
- EC50: inactive

Structure (SMILES): Cc1ccc(C)c(N2CCN(C(=O)CCc3nc(-c4ccccc4Cl)no3)CC2)c1
- pEC50: 5.86
- pKi: 6.92

Structure (SMILES): COc1ccc(-c2noc(CCC(=O)N3CCN(c4ccccc4C)CC3)n2)cc1
- pEC50: 5.83
- pKi: 6.89

Structure (SMILES): COc1ccc(-c2ccc(CCC(=O)N3CCN(c4cc(C)ccc4C)CC3)s2)cc1
- EC50: inactive

Structure (SMILES): Cc1ccc(C)c(N2CCN(C(=O)CCc3nc(-c4cccc(F)c4)no3)CC2)c1
- pEC50: 5.59
- pKi: 6.64

Structure (SMILES): Cc1ccc(C)c(N2CCN(C(=O)CCc3nc(-c4ccccc4)no3)CC2)c1
- pEC50: 5.56
- pKi: 6.60

Structure (SMILES): Cc1ccc(C)c(N2CCN(C(=O)CCc3nc(-c4ccc(Br)cc4)no3)CC2)c1
- pEC50: 5.52
- pKi: 6.57

Structure (SMILES): COc1ccc(-c2ccc(CCC(=O)N3CCN(c4cc(C)ccc4C)CC3)[nH]2)cc1
- EC50: inactive
- pKi: 6.32

Structure (SMILES): COc1ccc(-c2noc(CCC(=O)N3CCN(c4cccc(C(F)(F)F)c4)CC3)n2)cc1
- EC50: inactive
- pKi: 6.08

Structure (SMILES): Cc1ccc(C)c(N2CCN(C(=O)CCc3nc(-c4ccccc4C)no3)CC2)c1
- pEC50: 5.70
- pKi: 6.74

Structure (SMILES): Cc1ccc(C)c(N2CCN(C(=O)CCc3nc(-c4ccccc4F)no3)CC2)c1
- pEC50: 5.65
- pKi: 6.70

Structure (SMILES): COc1ccc(-c2noc(CCC(=O)N3CCN(c4ccccc4)CC3)n2)cc1
- EC50: inactive
- pKi: 6.80

Structure (SMILES): COc1ccc(-c2noc(CCC(=O)N3CCN(c4ccc(Cl)cc4)CC3)n2)cc1
- EC50: inactive

Structure (SMILES): COc1ccc(-c2noc(CCC(=O)N3CCN(c4cccc(Br)c4)CC3)n2)cc1
- pEC50: 4.69
- pKi: 5.73

Structure (SMILES): COc1ccc(-c2noc(CCCCC(=O)N3CCN(c4cc(C)ccc4C)CC3)n2)cc1
- EC50: inactive
- pKi: 5.97

Structure (SMILES): COc1ccc(-c2noc(CCC(=O)N3CCN(c4ccccc4C(F)(F)F)CC3)n2)cc1
- pEC50: 5.70
- pKi: 6.74

Structure (SMILES): COc1ccc(-c2noc(CCC(=O)N3CCN(c4ccc(C)cc4)CC3)n2)cc1
- EC50: inactive
- pKi: 6.85

Structure (SMILES): COc1ccc(-c2coc(CCC(=O)N3CCN(c4cc(C)ccc4C)CC3)n2)cc1
- pEC50: 5.55
- pKi: 6.59

Structure (SMILES): COc1ccc(-c2noc(CCC(=O)N3CCN(c4ccc(Br)cc4)CC3)n2)cc1
- EC50: inactive
- pKi: 6.52

Structure (SMILES): Cc1ccc(C)c(N2CCN(C(=O)CCc3nc(-c4cccc(Cl)c4)no3)CC2)c1
- pEC50: 5.29
- pKi: 6.33

Structure (SMILES): Cc1ccc(C)c(N2CCN(C(=O)CCc3nc(-c4ccc(Cl)cc4)no3)CC2)c1
- pEC50: 5.65
- pKi: 6.70

Structure (SMILES): Cc1ccc(C)c(N2CCN(C(=O)CCc3nc(-c4ccc(C(F)(F)F)cc4)no3)CC2)c1
- pEC50: 5.71
- pKi: 6.74

Structure (SMILES): Cc1ccc(C)c(N2CCN(C(=O)CCc3nc(-c4ccccc4Br)no3)CC2)c1
- pEC50: 5.67
- pKi: 6.70

Structure (SMILES): COc1ccc(-c2cc(CCC(=O)N3CCN(c4cc(C)ccc4C)CC3)on2)cc1
- EC50: inactive
- pKi: 6.72

Structure (SMILES): COc1cccc(-c2noc(CCC(=O)N3CCN(c4cc(C)ccc4C)CC3)n2)c1
- pEC50: 5.24
- pKi: 6.28

Structure (SMILES): COc1ccc(-c2noc(CCC(=O)N3CCN(c4ccc(F)cc4)CC3)n2)cc1
- EC50: inactive
- pKi: 7.10

Structure (SMILES): COc1ccc(-c2noc(CCC(=O)N3CCN(c4cccc(C)c4)CC3)n2)cc1
- EC50: inactive

Structure (SMILES): COc1ccccc1-c1noc(CCC(=O)N2CCN(c3cc(C)ccc3C)CC2)n1
- EC50: inactive
- pKi: 6.32

Structure (SMILES): COc1ccc(-c2noc(CC(=O)N3CCN(c4cc(C)ccc4C)CC3)n2)cc1
- EC50: inactive
- pKi: 5.88

Structure (SMILES): COc1ccc(-c2cc(CCC(=O)N3CCN(c4cc(C)ccc4C)CC3)[nH]n2)cc1
- EC50: inactive

Structure (SMILES): COc1ccc(-c2noc(CCC(=O)N3CCN(c4ccccc4Br)CC3)n2)cc1
- pEC50: 5.65
- pKi: 6.70

Structure (SMILES): Cc1ccc(C)c(N2CCN(C(=O)CCc3nc(-c4ccccc4C(F)(F)F)no3)CC2)c1
- pEC50: 5.57
- pKi: 6.60

Structure (SMILES): COc1ccc(-c2ccc(CCC(=O)N3CCN(c4cc(C)ccc4C)CC3)o2)cc1
- EC50: inactive

Structure (SMILES): Cc1ccc(C)c(N2CCN(C(=O)CCc3nc(-c4cccc(C(F)(F)F)c4)no3)CC2)c1
- pEC50: 5.47
- pKi: 6.51

Structure (SMILES): COc1ccc(-c2noc(CCC(=O)N3CCN(c4cccc(Cl)c4)CC3)n2)cc1
- pEC50: 5.13
- pKi: 6.17

Structure (SMILES): COc1ccc(-c2noc(CCC(=O)N3CCN(c4cccc(F)c4)CC3)n2)cc1
- EC50: inactive

Structure (SMILES): COc1ccc(-c2cccc(CCC(=O)N3CCN(c4cc(C)ccc4C)CC3)c2)cc1
- EC50: inactive
- pKi: 6.04
